Several values for one entry are separate records, joined by “and”; a condition that tells them apart may be missing. Identical values can stand only once. Inconclusive results and toxic doses are left out. How the source made its calls: active means survival T/C of 150% or more; inactive means T/C below 125% in these data.
Tested on: B6C3F1 mice, B16 melanoma ip, median survival T/C
Test: NCI In Vivo Anticancer Drug Screen. Data for tumor model B16 Melanoma (intraperitoneal) in B6C3F1 mice
Settings: endpoint: median survival time, higher = longer survival
How it was run: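 Readout: survival or tumor size in treated mice relative to vehicle controls (T/C). Model uses transplantable tumors grown in mice.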

[1] = dose: 1.56 mg/kg/injection, schedule: Q01DX009 (ip), vehicle: Klucel (hydroxypropylcellulose) (HPC)
[2] = dose: 3.12 mg/kg/injection, schedule: Q01DX009 (ip), vehicle: Klucel (hydroxypropylcellulose) (HPC)
[3] = dose: 6.25 mg/kg/injection, schedule: Q01DX009 (ip), vehicle: Klucel (hydroxypropylcellulose) (HPC)
[4] = dose: 12.5 mg/kg/injection, schedule: Q01DX009 (ip), vehicle: saline
[5] = dose: 12.5 mg/kg/injection, schedule: Q01DX009 (ip), vehicle: Klucel (hydroxypropylcellulose) (HPC)
[6] = dose: 25.0 mg/kg/injection, schedule: Q01DX009 (ip), vehicle: Klucel (hydroxypropylcellulose) (HPC)
[7] = dose: 50.0 mg/kg/injection, schedule: Q01DX009 (ip), vehicle: Klucel (hydroxypropylcellulose) (HPC)
[8] = dose: 100.0 mg/kg/injection, schedule: Q01DX009 (ip), vehicle: Klucel (hydroxypropylcellulose) (HPC)
[9] = dose: 200.0 mg/kg/injection, schedule: Q01DX009 (ip), vehicle: Klucel (hydroxypropylcellulose) (HPC)
[10] = dose: 400.0 mg/kg/injection, schedule: Q01DX009 (ip), vehicle: Klucel (hydroxypropylcellulose) (HPC)
[11] = dose: 3.0 mg/kg/injection, schedule: Q01DX009 (ip), vehicle: saline with Tween-80
[12] = dose: 6.0 mg/kg/injection, schedule: Q01DX009 (ip), vehicle: saline with Tween-80
[13] = dose: 12.0 mg/kg/injection, schedule: Q01DX009 (ip), vehicle: saline with Tween-80
[14] = dose: 12.5 mg/kg/injection, schedule: Q01DX009 (ip), vehicle: saline with Tween-80
[15] = dose: 25.0 mg/kg/injection, schedule: Q01DX009 (ip), vehicle: saline with Tween-80
[16] = dose: 50.0 mg/kg/injection, schedule: Q01DX009 (ip), vehicle: saline with Tween-80
[17] = dose: 100.0 mg/kg/injection, schedule: Q01DX009 (ip), vehicle: saline with Tween-80
[18] = dose: 400.0 mg/kg/injection, schedule: Q01DX009 (ip), vehicle: saline with Tween-80

Measured: T/C

C(CC1CO1)C1CO1 (stereo not drawn)
inactive: dose: 2.5 mg/kg/injection, schedule: Q01DX009 (ip), vehicle: Klucel (hydroxypropylcellulose) (HPC) 94 % of control | dose: 5.0 mg/kg/injection, schedule: Q01DX009 (ip), vehicle: Klucel (hydroxypropylcellulose) (HPC) 101 % of control | dose: 10.0 mg/kg/injection, schedule: Q01DX009 (ip), vehicle: Klucel (hydroxypropylcellulose) (HPC) 101 % of control | dose: 20.0 mg/kg/injection, schedule: Q01DX009 (ip), vehicle: Klucel (hydroxypropylcellulose) (HPC) 111 % of control | dose: 40.0 mg/kg/injection, schedule: Q01DX009 (ip), vehicle: Klucel (hydroxypropylcellulose) (HPC) 107 % of control | dose: 80.0 mg/kg/injection, schedule: Q01DX009 (ip), vehicle: Klucel (hydroxypropylcellulose) (HPC) 98 % of control

Cc1noc(N)c1N
inactive: dose: 12.0 mg/kg/injection, schedule: Q01DX009 (ip), vehicle: water 94 % of control | dose: 25.0 mg/kg/injection, schedule: Q01DX009 (ip), vehicle: water 100 % of control | dose: 50.0 mg/kg/injection, schedule: Q01DX009 (ip), vehicle: water 106 % of control | dose: 100.0 mg/kg/injection, schedule: Q01DX009 (ip), vehicle: water 100 % of control | dose: 200.0 mg/kg/injection, schedule: Q01DX009 (ip), vehicle: water 96 % of control | dose: 400.0 mg/kg/injection, schedule: Q01DX009 (ip), vehicle: water 90 % of control

CNC(=O)OCc1c(COC(=O)NC)c(-c2ccc(F)cc2)n2c1CCC2
inactive: dose: 0.78 mg/kg/injection, schedule: Q01DX009 (ip), vehicle: Klucel (hydroxypropylcellulose) (HPC) 114 % of control | [1] 108 % of control | [2] 122 % of control | [3] 117 % of control

Cc1[nH]ccc(=O)c1O
inactive: dose: 16.0 mg/kg/injection, schedule: Q01DX009 (ip), vehicle: saline with Tween-80 103 % of control | dose: 32.0 mg/kg/injection, schedule: Q01DX009 (ip), vehicle: saline with Tween-80 103 % of control | dose: 64.0 mg/kg/injection, schedule: Q01DX009 (ip), vehicle: saline with Tween-80 109 % of control | dose: 128.0 mg/kg/injection, schedule: Q01DX009 (ip), vehicle: saline with Tween-80 111 % of control | dose: 256.0 mg/kg/injection, schedule: Q01DX009 (ip), vehicle: saline with Tween-80 118 % of control

CCCC(=O)Nc1ncnc2c1ncn2C1OC2COP(=O)(O)OC2C1OC(=O)CCC (stereo not drawn)
inactive: [4] 102 % of control (2×) and 103 % of control | dose: 25.0 mg/kg/injection, schedule: Q01DX009 (ip), vehicle: saline 95 % of control and 100 % of control and 104 % of control | dose: 50.0 mg/kg/injection, schedule: Q01DX009 (ip), vehicle: saline 93 % of control and 102 % of control (2×) | dose: 100.0 mg/kg/injection, schedule: Q01DX009 (ip), vehicle: saline 94 % of control and 101 % of control and 102 % of control | dose: 200.0 mg/kg/injection, schedule: Q01DX009 (ip), vehicle: saline 112 % of control and 88 % of control and 100 % of control | dose: 400.0 mg/kg/injection, schedule: Q01DX009 (ip), vehicle: saline 88 % of control and 94 % of control and 103 % of control

ClCCCCCCCCCCc1ccccc1
inactive: [5] 91 % of control | [6] 94 % of control | [7] 91 % of control | [8] 93 % of control | [9] 90 % of control | [10] 89 % of control

c1ccc([Te][Te]c2ccccc2)cc1
inactive: [11] 92 % of control and 94 % of control | [12] 98 % of control and 100 % of control and 106 % of control | [13] 112 % of control and 122 % of control and 98 % of control | dose: 24.0 mg/kg/injection, schedule: Q01DX009 (ip), vehicle: saline with Tween-80 114 % of control and 121 % of control and 102 % of control | dose: 48.0 mg/kg/injection, schedule: Q01DX009 (ip), vehicle: saline with Tween-80 113 % of control

N#Cc1ccc(NC(=O)Nc2nncs2)cc1
inactive: [14] 120 % of control and 105 % of control | [15] 118 % of control and 107 % of control | [16] 111 % of control

O=[N+]([O-])c1c(O)c(CNCCCO)cc(CNCCCO)c1O
inactive: dose: 6.25 mg/kg/injection, schedule: Q01DX009 (ip), vehicle: saline 102 % of control | [4] 102 % of control

CCC(CC)COC(=O)c1ccccc1C(=O)OCC(CC)CC
inactive: dose: 3.12 mg/kg/injection, schedule: Q01DX009 (ip), vehicle: saline with Tween-80 98 % of control | dose: 6.25 mg/kg/injection, schedule: Q01DX009 (ip), vehicle: saline with Tween-80 97 % of control and 106 % of control | [14] 110 % of control and 90 % of control and 107 % of control | [15] 91 % of control and 96 % of control and 103 % of control | [16] 89 % of control and 96 % of control and 97 % of control | [17] 93 % of control and 97 % of control | dose: 200.0 mg/kg/injection, schedule: Q01DX009 (ip), vehicle: saline with Tween-80 106 % of control | [18] 104 % of control

O=c1nc(-c2ccco2)sc(=O)[nH]1
inactive: [6] 95 % of control | [7] 99 % of control | [8] 118 % of control | [9] 112 % of control

CCOC(=O)C(CC(C)C)NC(=O)C(N)Cc1ccc(N(CCCl)CCCl)cc1 (stereo not drawn)
inactive: dose: 1.25 mg/kg/injection, schedule: Q01DX009 (ip), vehicle: water 113 % of control | dose: 2.5 mg/kg/injection, schedule: Q01DX009 (ip), vehicle: water 113 % of control and 102 % of control

CC(=O)Nc1cc2oc3ccccc3c2cc1[N+](=O)[O-]
inactive: [17] 88 % of control | [18] 91 % of control

N#CC(=C1SCS1)[N+](=O)[O-]
inactive: dose: 0.37 mg/kg/injection, schedule: Q01DX009 (ip), vehicle: saline with Tween-80 108 % of control | dose: 0.75 mg/kg/injection, schedule: Q01DX009 (ip), vehicle: saline with Tween-80 100 % of control | dose: 1.5 mg/kg/injection, schedule: Q01DX009 (ip), vehicle: saline with Tween-80 105 % of control | [11] 119 % of control | [12] 118 % of control | [13] 107 % of control | dose: 375.0 micrograms/kg/injection, schedule: Q01DX009 (ip), vehicle: saline with Tween-80 107 % of control | dose: 750.0 micrograms/kg/injection, schedule: Q01DX009 (ip), vehicle: saline with Tween-80 104 % of control | dose: 1500.0 micrograms/kg/injection, schedule: Q01DX009 (ip), vehicle: saline with Tween-80 113 % of control | dose: 3000.0 micrograms/kg/injection, schedule: Q01DX009 (ip), vehicle: saline with Tween-80 108 % of control | dose: 6000.0 micrograms/kg/injection, schedule: Q01DX009 (ip), vehicle: saline with Tween-80 101 % of control

NC(=O)CCC(NC(=O)OCc1ccccc1)C(=O)NCC(=O)O (stereo not drawn)
inactive: dose: 12.0 mg/kg/injection, schedule: Q01DX009 (ip), vehicle: Klucel (hydroxypropylcellulose) (HPC) 110 % of control | [6] 98 % of control | [7] 118 % of control | [8] 95 % of control | [9] 98 % of control | [10] 103 % of control

CO[C@H]1Nc2c(ccc(C)c2O)C(=O)N2C=C(/C=C/C(N)=O)C[C@@H]12
inactive: dose: 0.03 mg/kg/injection, schedule: Q01DX009 (ip), vehicle: saline with Tween-80 111 % of control | dose: 0.05 mg/kg/injection, schedule: Q04DX003 (ip), vehicle: DMSO 92 % of control | dose: 0.06 mg/kg/injection, schedule: Q01DX009 (ip), vehicle: saline with Tween-80 104 % of control | dose: 0.1 mg/kg/injection, schedule: Q04DX003 (ip), vehicle: DMSO 105 % of control | dose: 0.12 mg/kg/injection, schedule: Q01DX009 (ip), vehicle: saline with Tween-80 102 % of control | dose: 0.2 mg/kg/injection, schedule: Q04DX003 (ip), vehicle: DMSO 109 % of control | dose: 0.25 mg/kg/injection, schedule: Q01DX009 (ip), vehicle: saline with Tween-80 122 % of control | dose: 0.4 mg/kg/injection, schedule: Q04DX003 (ip), vehicle: DMSO 104 % of control

Cn1c(N)c(C(=O)/C=C/c2ccccc2)c(=O)n(C)c1=O
inactive: [1] 101 % of control | [2] 107 % of control | [3] 106 % of control | [5] 104 % of control | [6] 105 % of control | [7] 116 % of control

[N-]=[N+]=C1N=CN=C1c1ncn[nH]1
inactive: [2] 104 % of control | [3] 113 % of control | [5] 121 % of control
